Data reported in patent US5968817A, “DNA encoding serotonin receptors” (priority 1993, dated 1999).
Where two headings read alike, the source gives them in different places.

Assays:
[1] = target: T1, REC20 serotonin receptor (5-HT6) (Rattus norvegicus, UniProt P32305); assay: [125I]-LSD competition binding to membranes of CosM6 cells expressing REC20
T1 construct: encodes a putative protein of 435 amino acids; expressed in transfected cells; host or cells: CosM6 (subclone of COS-7), transient, vector pCMV4

[2] = target: T2, MR77 serotonin receptor (5-HT1E-Like) (Rattus norvegicus, UniProt P30940); assay: [125I]-LSD competition binding to membranes of CosM6 cells expressing MR77
T2 construct: expressed in transfected cells; host or cells: CosM6 (subclone of COS-7), transient, vector pCMV4
T2 sequence (P30940 1-366): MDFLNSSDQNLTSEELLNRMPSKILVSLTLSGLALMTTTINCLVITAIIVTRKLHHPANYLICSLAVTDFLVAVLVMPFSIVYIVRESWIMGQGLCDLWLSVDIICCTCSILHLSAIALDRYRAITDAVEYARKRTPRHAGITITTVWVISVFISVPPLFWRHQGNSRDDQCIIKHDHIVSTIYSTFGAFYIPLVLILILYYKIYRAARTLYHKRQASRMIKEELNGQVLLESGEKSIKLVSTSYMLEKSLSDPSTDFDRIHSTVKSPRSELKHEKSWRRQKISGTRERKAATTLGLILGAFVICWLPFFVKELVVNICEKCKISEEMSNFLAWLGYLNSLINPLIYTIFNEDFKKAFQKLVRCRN

[3] = target: T3, MR22 serotonin receptor (5-HT5β) (Rattus norvegicus, UniProt P35365); assay: [125I]-LSD competition binding to membranes of CosM6 cells expressing MR22
T3 construct: contains an open reading frame (ORF) encoding 370 amino acids; expressed in transfected cells; host or cells: CosM6 (subclone of COS-7), transient, vector pCMV4

[4] = target: T4, REC17 serotonin receptor (5-HT5α) (Rattus norvegicus, UniProt P35364); assay: [125I]-LSD competition binding to membranes of CosM6 cells expressing REC17
T4 construct: contains an ORF encoding 357 amino acids; expressed in transfected cells; host or cells: CosM6 (subclone of COS-7), transient, vector pCMV4

[5] = test system: suprachiasmatic nucleus (SCN) neuronal activity; assay: Effects of serotonergic agents on circadian rhythm of neuronal activity in suprachiasmatic nucleus slices; details: for effect of antagonist on the 8-OH-DPAT-dependent phase shift: antagonist 15 min before, during and 15 min after 1 hour 8-OH-DPAT
Description: This was followed by the normal perfusion medium. Horizontal bars: time of lights-off in donor colony; vertical bars: time of treatment; dotted line: mean time of peak in untreated slices.
The effects of serotinergic agents on the neuronal activity as measured against circadian time in the suprachiasmatic nucleus (SCN) were measured. […] This was followed by the normal perfusion medium.

[6] = CosM6 membranes, 1 nM [125I]-LSD, 60 min 37° C., read-out: IC50 for competition with 125I-LSD, Rec20
[7] = CosM6 membranes, 1 nM [125I]-LSD, 60 min 37° C., read-out: IC50 for competition with 125I-LSD, MR77

T4 sequence (P35364 whole entry): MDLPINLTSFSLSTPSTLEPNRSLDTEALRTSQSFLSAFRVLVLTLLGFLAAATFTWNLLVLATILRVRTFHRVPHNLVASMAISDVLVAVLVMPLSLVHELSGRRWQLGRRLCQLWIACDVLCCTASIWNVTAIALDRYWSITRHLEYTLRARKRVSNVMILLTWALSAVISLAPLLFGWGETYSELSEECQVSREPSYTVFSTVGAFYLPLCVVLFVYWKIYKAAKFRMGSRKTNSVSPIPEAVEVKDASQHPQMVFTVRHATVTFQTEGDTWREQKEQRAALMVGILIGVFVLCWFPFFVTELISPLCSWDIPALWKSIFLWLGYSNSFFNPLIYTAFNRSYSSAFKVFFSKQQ
T3 sequence (P35365 whole entry S4C/P322A): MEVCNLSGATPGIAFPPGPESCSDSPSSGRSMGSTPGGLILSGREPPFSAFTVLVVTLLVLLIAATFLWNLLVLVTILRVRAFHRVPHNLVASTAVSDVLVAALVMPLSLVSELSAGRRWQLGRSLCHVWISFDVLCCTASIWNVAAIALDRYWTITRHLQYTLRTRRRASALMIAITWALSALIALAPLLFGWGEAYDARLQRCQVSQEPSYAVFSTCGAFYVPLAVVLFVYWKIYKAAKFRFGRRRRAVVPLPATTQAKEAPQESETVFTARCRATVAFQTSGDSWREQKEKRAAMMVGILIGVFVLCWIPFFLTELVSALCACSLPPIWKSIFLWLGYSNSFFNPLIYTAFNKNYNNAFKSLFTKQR
T1 sequence (P32305 1-435): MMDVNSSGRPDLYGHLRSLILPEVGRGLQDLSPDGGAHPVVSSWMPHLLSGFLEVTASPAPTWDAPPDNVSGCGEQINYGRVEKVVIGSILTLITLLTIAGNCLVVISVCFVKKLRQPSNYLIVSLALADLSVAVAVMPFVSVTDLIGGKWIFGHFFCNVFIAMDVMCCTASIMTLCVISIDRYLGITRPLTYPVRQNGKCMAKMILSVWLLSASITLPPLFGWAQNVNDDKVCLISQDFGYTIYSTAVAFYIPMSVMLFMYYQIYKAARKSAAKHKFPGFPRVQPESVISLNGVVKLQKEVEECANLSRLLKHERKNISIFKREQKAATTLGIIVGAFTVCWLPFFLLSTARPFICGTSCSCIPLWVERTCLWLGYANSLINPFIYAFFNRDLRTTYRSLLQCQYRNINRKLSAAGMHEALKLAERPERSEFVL

CN1C[C@H](C(=O)N[C@]2(C)O[C@@]3(O)[C@@H]4CCCN4C(=O)[C@H](Cc4ccccc4)N3C2=O)C=C2c3cccc4[nH]cc(c34)C[C@H]21 [Ergotamine]
IC50 [1]: 33 nM | IC50 [2]: 55 nM | IC50 [3]: 22 nM | sensitivity of MR22 to the ligand (in words) [3]: sensitive

NCCc1c[nH]c2ccc(C(N)=O)cc12 [Ligand 5-CT, 5-carboxyamidotryptamine]
sensitivity of radiolabeled LSD binding to REC20 to the ligand (in words) [1]: displace | IC50 [1, 6]: 0.8 nM | sensitivity of radiolabeled LSD binding to MR77 to the ligand (in words) [2]: insenstive | IC50 [2, 7]: > 1000 nM | IC50 [4]: 20.4 nM | sensitivity of REC17 to the ligand (in words) [4]: sensitive | IC50 [3]: 285 nM | sensitivity of MR22 to the ligand (in words) [3]: sensitive

NCCc1c[nH]c2ccc(O)cc12 [Ligand 5-HT, 5-hydroxytryptamine]
IC50 [2, 7]: 70 nM | IC50 [4]: 380 nM

CCCN(CCC)C1CCc2cccc(O)c2C1 (stereo not drawn) [Ligand 8-OH-DPAT]
sensitivity of radiolabeled LSD binding to REC20 to the ligand (in words) [1]: displace | IC50 [1, 6]: 97 nM | phase advance in the circadian rhythm of spontaneous neuronal activity in the SCN ([5]; slice bath treatment for 1 hour): 2 to 3 h | sensitivity of radiolabeled LSD binding to MR77 to the ligand (in words) [2]: insenstive | IC50 [4]: > 1000 nM | sensitivity of REC17 to the ligand (in words) [4]: insensitive | IC50 [3]: > 1000 nM | sensitivity of MR22 to the ligand (in words) [3]: insensitive

CN1C[C@@H](NS(=O)(=O)N(C)C)C[C@@H]2c3cccc4c3c(cn4C)C[C@H]21 [Mesulergine]
IC50 [1, 6]: 17 nM | IC50 [2, 7]: > 1000 nM | IC50 [4]: > 1000 nM | IC50 [3]: > 1000 nM

CN1C[C@H](CNC(=O)OCc2ccccc2)C[C@@H]2c3cccc4c3c(cn4C)C[C@H]21 [Metergoline]
IC50 [1, 6]: 17 nM | IC50 [2, 7]: 535 nM | IC50 [4]: > 1000 nM | IC50 [3]: > 1000 nM

CSc1ccc2c(c1)C(N1CCN(C)CC1)Cc1ccccc1S2 (stereo not drawn) [Methiothepin]
IC50 [2, 7]: > 1000 nM | IC50 [4]: 45 nM | sensitivity of REC17 to the ligand (in words) [4]: sensitive | sensitivity of MR22 to the ligand (in words) [3]: sensitive

CC[C@@H](CO)NC(=O)[C@@H]1C=C2c3cccc4c3c(cn4C)C[C@H]2N(C)C1 [Methysergide]
IC50 [1]: 32 nM | IC50 [2]: 14 nM | IC50 [4]: 310 nM | IC50 [3]: > 1000 nM

CC(C)NCC(O)COc1cccc2[nH]ccc12 (stereo not drawn) [Pindolol]
IC50 [1, 6]: > 1000 nM | effect of antagonist on the 8-OH-DPAT-dependent phase shift [5]: has no effect

Cc1nc2sccn2c(=O)c1CCN1CCC(=C(c2ccc(F)cc2)c2ccc(F)cc2)CC1 [Ritanserin]
IC50 [1, 6]: 60 nM | effect of antagonist on the 8-OH-DPAT-dependent phase shift [5]: blocks

CNS(=O)(=O)Cc1ccc2[nH]cc(CCN(C)C)c2c1 [Sumatriptan]
IC50 [1, 6]: > 1000 nM | sensitivity of radiolabeled LSD binding to MR77 to the ligand (in words) [2]: sensitive | IC50 [4]: > 1000 nM | sensitivity of REC17 to the ligand (in words) [4]: insensitive | IC50 [3]: > 1000 nM | sensitivity of MR22 to the ligand (in words) [3]: insensitive

COC(=O)[C@@H]1[C@H]2C[C@H]3c4[nH]c5ccccc5c4CCN3C[C@@H]2CC[C@@H]1O [Yohimbine]
IC50 [2, 7]: 570 nM

CCN(CC)C(=O)[C@@H]1C=C2c3cccc4[nH]c([125I])c(c34)C[C@H]2N(C)C1 [[^125 I]-LSD]
binding of [125I]-LSD to REC20 broken cell preparations (in words) ([1]; transfected CosM6 cells): saturable binding | binding of [125I]-LSD to MR77 broken cell preparations (in words) ([2]; transfected CosM6 cells): saturable binding | binding of [125I]-LSD to REC17 broken cell preparations (in words) ([4]; transfected CosM6 cells): saturable binding | binding of [125I]-LSD to MR22 broken cell preparations (in words) ([3]; transfected CosM6 cells): saturable binding

O=C(c1ccc(F)cc1)C1CCN(CCn2c(=O)[nH]c3ccccc3c2=O)CC1 [ketanserin]
sensitivity of radiolabeled LSD binding to REC20 to the ligand (in words) [1]: sensitive
